From the supplement of paper PMC10307832

Legend:
Experiment in all cases: relative viability (nuclei count vs DMSO), 5 days (fraction); higher = more cells survive
[1] = compound: O=C(CCCCCCC(=O)Nc1ccccc1)NO [Vorinostat] + Nc1nc2[nH]cc(CCc3ccc(C(=O)N[C@@H](CCC(=O)O)C(=O)O)cc3)c2c(=O)[nH]1 [Pemetrexed] (partner 0.2 µM)
Outline: (§1)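 Dosing by pin tool came one day after lung cancer cell lines were seeded in 1536-well plates, using either one drug or a fixed anchor-drug dose plus five library-drug doses (not always all listed) in √10 steps. After 5 days, nuclei were counted on 4× images. Relative viability is treated-well nuclei count divided by vehicle-well nuclei count, and values are medians of duplicate plates.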

[2] = compound: O=C(CCCCCCC(=O)Nc1ccccc1)NO [Vorinostat] + N=C(N)NC(=N)NCCc1ccccc1 [Phenformin] (partner 250 µM)
Outline: as §1

[3] = compound: O=C(CCCCCCC(=O)Nc1ccccc1)NO [Vorinostat] + CC(=O)Nc1cccc(-n2c(=O)n(C3CC3)c(=O)c3c(Nc4ccc(I)cc4F)n(C)c(=O)c(C)c32)c1 [Trametinib] (partner 0.02 µM)
Outline: as §1

[4] = compound: O=C(CCCCCCC(=O)Nc1ccccc1)NO [Vorinostat] + CS(=O)(=O)N1CCN(Cc2cc3nc(-c4cccc5[nH]ncc45)nc(N4CCOCC4)c3s2)CC1 [Pictilisib] (partner 1 µM)
Outline: as §1

[5] = compound: O=C(CCCCCCC(=O)Nc1ccccc1)NO [Vorinostat] + NC(=O)Nc1cc(-c2cccc(F)c2)sc1C(=O)N[C@H]1CCCNC1 [AZD7762] (partner 0.2 µM)
Outline: as §1

| Cell Line | relative viability ([1]; first compound 0.253 µM) | relative viability ([1]; first compound 0.8 µM) | relative viability ([1]; first compound 2.53 µM) | relative viability ([1]; first compound 8 µM) | relative viability ([2]; first compound 0.253 µM) | relative viability ([2]; first compound 0.8 µM) | relative viability ([2]; first compound 2.53 µM) | relative viability ([2]; first compound 8 µM) | relative viability ([3]; first compound 0.253 µM) | relative viability ([3]; first compound 0.8 µM) | relative viability ([3]; first compound 2.53 µM) | relative viability ([3]; first compound 8 µM) | relative viability ([4]; first compound 0.253 µM) | relative viability ([4]; first compound 0.8 µM) | relative viability ([4]; first compound 2.53 µM) | relative viability ([4]; first compound 8 µM) | relative viability ([5]; first compound 0.253 µM) | relative viability ([5]; first compound 0.8 µM) | relative viability ([5]; first compound 2.53 µM) | relative viability ([5]; first compound 8 µM) |
| --- | --- | --- | --- | --- | --- | --- | --- | --- | --- | --- | --- | --- | --- | --- | --- | --- | --- | --- | --- | --- |
| NCI-H1437 | 0.308 | 0.3 | 0.187 | 0.151 | 0.302 | 0.246 | 0.168 | 0.178 | 0.481 | 0.368 | 0.23 | 0.155 | 0.466 | 0.167 | 0.107 | 0.088 | 1.23 | 0.9 | 0.426 | 0.197 |
| HCC-44 | 0.663 | 0.683 | 0.628 | 0.485 | 0.147 | 0.108 | 0.0733 | 0.0646 | 1.11 | 0.968 | 0.91 | 0.286 | 0.603 | 0.411 | 0.308 | 0.0904 | 1.01 | 1.02 | 0.879 | 0.526 |
| NCI-H2126 | 0.776 | 0.666 | 0.419 | 0.208 | 0.525 | 0.495 | 0.244 | 0.177 | 0.612 | 0.533 | 0.296 | 0.166 | 0.495 | 0.42 | 0.334 | 0.221 | 0.999 | 0.989 | 0.774 | 0.208 |
| NCI-H1993 | 0.594 | 0.492 | 0.503 | 0.344 | 0.436 | 0.491 | 0.588 | 0.464 | 0.649 | 0.61 | 0.548 | 0.36 | 0.911 | 0.919 | 0.801 | 0.589 | 0.817 | 0.672 | 0.384 | 0.312 |
| NCI-H460 | 0.0729 | 0.064 | 0.0548 | 0.0231 | 0.611 | 0.4 | 0.0276 | 0.016 | 0.231 | 0.0799 | 0.0298 | 0.0227 | 0.37 | 0.279 | 0.208 | 0.0481 | 0.348 | 0.446 | 0.0499 | 0.0349 |
| NCI-H838 | 0.258 | 0.269 | 0.19 | 0.167 | 0.95 | 0.562 | 0.317 | 0.139 | 0.631 | 0.481 | 0.279 | 0.112 | 0.798 | 0.675 | 0.349 | 0.142 | 0.998 | 1 | 0.628 | 0.609 |
